Test results as given in the NIST ThermoML archive (doi:10.1016/j.jct.2015.02.020).

Columns and labels:
[1] = refractive index (Na D-line) (dimensionless); xn = mol fraction of the nth substance listed; conditions: 101.3 kPa, Liquid, Standard Abbe refractometry
[2] = xn = mol fraction of the nth substance listed; conditions: 101.3 kPa, Liquid; for viscosity: Falling or rolling sphere viscometry; for speed of sound: Sing-around technique in a fixed-path interferometer; for mass density: Vibrating tube method

CC[n+]1ccccc1C.O=S(=O)([N-]S(=O)(=O)C(F)(F)F)C(F)(F)F + O
Conditions	mass density, [2] [kg/m3]	refractive index, [1]	speed of sound, [2] [m/s]	viscosity, [2] [mPa·s]
298.15 K, x2 = 0.124	1498.88	1.44635	1301.6	54.52
298.15 K, x2 = 0.172	1496.43	1.44579	1302.6	48.93
298.15 K, x2 = 0.256	1490.94	1.44479	1304.6	40.5
303.15 K, x2 = 0.124	1493.99	1.44489	1290.2	44.3
303.15 K, x2 = 0.172	1491.53	1.44442	1291.2	39.95
303.15 K, x2 = 0.256	1485.99	1.44323	1293.2	32.89
308.15 K, x2 = 0.124	1489.12	1.44343	1279	36.58
308.15 K, x2 = 0.172	1486.64	1.44289	1279.9	33.11
308.15 K, x2 = 0.256	1481.06	1.44178	1282.2	27.38
313.15 K, x2 = 0.124	1484.26	1.44195	1267.9	30.63
313.15 K, x2 = 0.172	1481.77	1.44136	1268.8	27.84
313.15 K, x2 = 0.256	1476.14	1.44044	1271	23.19
318.15 K, x2 = 0.124	1479.43	1.4405	1256.9	25.97
318.15 K, x2 = 0.172	1476.91	1.43988	1257.8	23.68
318.15 K, x2 = 0.256	1471.25	1.43914	1259.9	19.85
323.15 K, x2 = 0.124	1474.61	1.43906	1246	22.27
323.15 K, x2 = 0.172	1472.08	1.43853	1246.8	20.38
323.15 K, x2 = 0.256	1466.37	1.43787	1248.8	17.19
328.15 K, x2 = 0.124	1469.81	1.43777	1235.3	19.27
328.15 K, x2 = 0.172	1467.26	1.4372	1236	17.72
328.15 K, x2 = 0.256	1461.5	1.43662	1237.9	14.95
333.15 K, x2 = 0.124	1465.03	1.43633	1224.6	16.83
333.15 K, x2 = 0.172	1462.46	1.43586	1225.3	15.44
333.15 K, x2 = 0.256	1456.65	1.43532	1227.1	13.17
338.15 K, x2 = 0.124	1460.28	1.43494	1214	14.77
338.15 K, x2 = 0.172	1457.68	1.43447	1214.6	13.67
338.15 K, x2 = 0.256	1451.82	1.43398	1216.3	11.71
343.15 K, x2 = 0.124	1455.53	1.43355	1203.5	13.13
343.15 K, x2 = 0.172	1452.91	1.43315	1204.1	12.18
343.15 K, x2 = 0.256	1447.01	1.43279	1205.6	10.47
